Test results: US20250199015A1, “CYCLIN-DEPENDENT KINASE 2 INHIBITORS FOR MEDICAL TREATMENT” (INCYCLIX BIO, LLC, priority 2022, published 2025)
Entries after “also recorded” stand apart in the source; their conditions may differ.

Key:
[1] = Nonclinical pharmacokinetics (IV and PO); conditions: in vivo
Experimental: Nonclinical PK studies were conducted for single dose of Compound I in rats, mice, and dogs, and for repeated doses of Compound I in rats and dogs. […] The relationship between dose level and systemic exposure was generally similar in male and female animals.

[2] = system: pRb (S780) in therapy-resistant T47D/MCF7M cells; assay: Western blot Rb phosphorylation in therapy-resistant cells; type: cell-based, human; conditions: combined with a CDK4/6i and/or estrogen therapy, 7 days
Experimental: Retinoblastoma (Rb) phosphorylation status analysis was then conducted in therapy-resistant cells by Western blotting. The T47D human breast carcinoma cell line was grown in RPMI-1640/1× Glutamax/1× Insulin/10% fetal bovine serum and was plated in Corning 6 well tissue culture treated plates. Cells were incubated at 37° C. for 24 hours prior to addition of treatment. Treatments were either DMSO, Compound I, or abemaciclib alone, or Compound I in combination with abemaciclib. Cells were treated for 7 days. All Abemaciclib treated cells received 500 nM Abemaciclib. […] Supernatant was removed, pellet resuspended in 250 μL of 1× Cell Lysis buffer (CST #9803, 1 tablet of PhosSTOP, 1 tablet of complete Protease Inhibitor Cocktail in 5 mL) then incubated on ice for 20 mins. Lysate was centrifuged at 21,000×g for 20 min at 4° C. and supernatant transferred to clean tubes. A DC assay was performed to determine the protein concentration of each lysate. 20 μg of protein was mixed with Laemelli buffer (+5% BME) before being run on homemade 15% gels. For samples normalized to cell number (p-RB and total RB), cells were washed in ice-cold PBS. Cells were counted and 500,000 cells were aliquoted into clean tubes. Cells were centrifuged at 500×g for 4 mins at 4° C. and supernatant discarded. Cell pellets were directly lysed in 100 μL of Laemmli buffer (+5% BME) and boiled at 95° C. for 12 min. […]

[3] = system: CCNE1, CCNE2 in Hs68 cells; assay: Western blot cell cycle proteins; type: cell-based, human; conditions: 24 hours
Experimental: The H69 and H526 human lung carcinoma cell lines were grown in RPMI-1640/1× Glutamax/10% fetal bovine serum while the Hs68 Normal foreskin fibroblast cell line was grown in DMEM-high glucose/1× Glutamax/10% fetal bovine serum. […] Cells were collected by washing each well twice with cold PBS, then scraping cells in the presence of 150 μL cold RIPA with protease and phosphatase inhibitors. Lysates were clarified by centrifugation at 14,000×g for 10 min at 4° C. and supernatants transferred to clean tubes. A BCA assay was performed to determine the protein concentration of each lysate. A total of 30 μg of protein was mixed with sample buffer and reducing agent before being run on a 4-12% SDS-PAGE. Protein was transferred to a nitrocellulose membrane and blocked with LI-COR blocking buffer for 1 hour. Membranes were incubated overnight in primary antibody at 4° C. Following 3 washes with TBS-T, membranes were incubated for 45 minutes in LI-COR secondary antibodies. Following 2 washes in TBS-T, and one TBS wash, membranes were scanned using a LI-COR OdysseyCLx. Image studio was used for image analysis.

[4] = system: phosphorylated Rb (pRb 807/811) in MCF7PDRC15-1 cells; assay: Western blot pRb, palbociclib-resistant MCF7; type: cell-based, human
Experimental: Cells were harvested, counted and then plated at 300,000 cells/well in 60 mm tissue culture treated dishes. […] Lysates were clarified by centrifugation at 12,000×g for 15 min at 4° C. and supernatants were transferred to clean tubes. A BCA assay was performed to determine the protein concentration of each lysate. A total of 25 μg of protein was mixed with sample buffer and reducing agent before being run on a 4-12% SDS-PAGE. Protein was transferred to a nitrocellulose membrane and blocked with LI-COR blocking buffer for 1 hour. Membranes were incubated overnight in primary antibody at 4° C. Following 3 washes with TBST, membranes were incubated for 60 minutes in LI-COR secondary antibodies. Following 3 washes in TBST, and one TBS wash, membranes were scanned using a LI-COR OdysseyCLx. Image studio was used for image analysis.

[5] = GLP 28-day oral toxicity and toxicokinetics study; type: in vivo, Sprague Dawley rats; conditions: for AUC0-24 / AUC(0-t) / Cmax / Tmax / half-life: po; for half-life: t1/2
Experimental: One-hundred and sixty (80 per sex) Sprague Dawley rats were randomly assigned to groups and dosed once daily via oral gavage for 28 consecutive days.
Nominal dose values and sampling times were used for calculations. Any concentration reported as BLQ (LLOQ<1.0 ng/ml) was set equal to zero. Toxicokinetic analyses included Cmax, Tmax, AUC0-24, t1/2, RA Cmax, and RA AUC0-24.
Based on the absence of toxicity, the 28-day maximum tolerated dose (MTD) (also the no observed adverse effect level [NOAEL]) was 1000 mg/kg/day, the highest dose level tested. […] Respiratory function was also not affected by Compound I at any dose level.

[6] = molecular target: T1, human OATP1B1 (Homo sapiens, UniProt Q9Y6L6); assay: SLC transporter inhibition in HEK293 cells; type: in vitro ADME
T1 construct: expressed in transfected cells; host or cells: HEK293
T1 sequence (Q9Y6L6 whole entry): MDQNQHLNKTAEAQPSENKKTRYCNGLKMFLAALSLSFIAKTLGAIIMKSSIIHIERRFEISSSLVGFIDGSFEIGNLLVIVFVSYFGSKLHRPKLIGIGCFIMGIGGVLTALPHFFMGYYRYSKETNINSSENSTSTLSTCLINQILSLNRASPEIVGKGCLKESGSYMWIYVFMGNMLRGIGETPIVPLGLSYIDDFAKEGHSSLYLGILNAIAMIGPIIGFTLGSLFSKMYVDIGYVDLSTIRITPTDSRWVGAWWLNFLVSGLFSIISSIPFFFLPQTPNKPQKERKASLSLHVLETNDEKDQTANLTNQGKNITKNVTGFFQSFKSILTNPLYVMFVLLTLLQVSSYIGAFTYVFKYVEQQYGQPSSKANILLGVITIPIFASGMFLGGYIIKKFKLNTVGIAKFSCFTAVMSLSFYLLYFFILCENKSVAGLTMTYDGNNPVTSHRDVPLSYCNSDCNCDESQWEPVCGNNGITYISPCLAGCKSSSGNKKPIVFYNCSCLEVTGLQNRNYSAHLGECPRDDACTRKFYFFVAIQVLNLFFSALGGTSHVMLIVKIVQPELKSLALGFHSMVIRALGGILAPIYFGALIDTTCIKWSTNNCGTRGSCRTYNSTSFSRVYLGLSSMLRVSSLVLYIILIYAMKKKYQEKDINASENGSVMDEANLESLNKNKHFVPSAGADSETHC

[7] = female, Sprague Dawley, rat, in vivo, 100 mg/kg/day
[8] = female, Sprague Dawley, rat, in vivo, 300 mg/kg/day
[9] = female, Sprague Dawley, rat, in vivo, 1000 mg/kg/day
[10] = male, Sprague Dawley, rat, in vivo, 100 mg/kg/day
[11] = male, Sprague Dawley, rat, in vivo, 300 mg/kg/day
[12] = male, Sprague Dawley, rat, in vivo, 1000 mg/kg/day

For NS(=O)(=O)c1ccc(Nc2ncc3cc4n(c3n2)C2(CCCCC2)C(=O)NN4)cc1 [Compound I], the half-life ([1]; dog, dogs) was ≤ 6 h, the Tmax ([1]; dog, iv, dogs, read-out: Tmax after IV dosing) was ≤ 0.25 h and the Tmax ([1]; dog, po, dogs, read-out: Tmax after PO dosing) was 1.2 to 1.7 h. For the same compound, the Tmax ([1]; mouse, iv, mice, read-out: Tmax after IV dosing) was ≤ 0.25 h, the Tmax ([1]; mouse, po, mice, read-out: Tmax after PO dosing) was 0.25 to 4 h and the Tmax ([1]; rat, iv, rats, read-out: Tmax after IV dosing) was ≤ 0.25 h. The Tmax ([1]; rat, po, rats, read-out: Tmax after PO dosing) was 0.25 to 0.5 h, the “Rb phosphorylation in therapy-resistant cells” value [2] was “prevents the phosphorylation” and the “cyclin E (CCNE1, CCNE2) levels” value [3] was “increase of cyclin E (CCNE1, CCNE2) amplification”. For the same compound, the “phosphorylated Rb (pRb) levels” value ([4]; 30-1000 nM, 24 hours, no palbociclib) was “little reduction in phosphorylated Rb (pRb) levels”, the “phosphorylated Rb (pRb) levels” value ([4]; co-administered with 1 μM palbociclib) was “substantial reduction in pRb levels” and the tolerability ([5]; PO, up to 28 days, up to 1000 mg/kg/day) was “generally well tolerated; also recorded: well tolerated in rats without adverse effects of any sort”. The “mean body weight and body weight gain” value ([5]; any dose level) was “did not affect”, the MTD at 28 days ([5]; both sexes, Sprague Dawley, rat, in vivo, oral, highest dose level tested, read-out: 28-day maximum tolerated dose (MTD) (also NOAEL)) was 1000 mg/kg/day and the AUC0-24 [5, 7] was 7570 ng·h/mL. The AUC(0-t) ([5]; female, Sprague Dawley, rat, in vivo, 100 mg/kg/day, AUC0-24) was 9580 ng·h/mL, the Cmax ([5]; female, Sprague Dawley, rat, in vivo, 100 mg/kg/day, Cmax) was 3330 ng/mL and the Tmax [5, 7] was 0.25 h. The half-life [5, 7] was 3.93 h, the AUC0-24 [5, 8] was 11600 ng·h/mL and the AUC(0-t) ([5]; female, Sprague Dawley, rat, in vivo, 300 mg/kg/day, AUC0-24) was 11400 ng·h/mL. It also gave a Cmax ([5]; female, Sprague Dawley, rat, in vivo, 300 mg/kg/day, Cmax) of 3070 ng/mL, a Tmax [5, 8] of 0.5 h and a half-life [5, 8] of 3.98 h. The AUC0-24 [5, 9] was 12700 ng·h/mL, the AUC(0-t) ([5]; female, Sprague Dawley, rat, in vivo, 1000 mg/kg/day, AUC0-24) was 12600 ng·h/mL and the Tmax [5, 9] was 0.5 h. For the same compound, the AUC(0-t) ([5]; female, Sprague Dawley, rat, in vivo, 1000 mg/kg/day, plasma AUC0-24) was 12700 ng·h/mL, the Cmax ([5]; female, Sprague Dawley, rat, in vivo, 1000 mg/kg/day, plasma Cmax) was 1390 ng/mL and the half-life [5, 9] was 5.89 h. For the same compound, the AUC0-24 [5, 10] was 8310 ng·h/mL, the AUC(0-t) ([5]; male, Sprague Dawley, rat, in vivo, 100 mg/kg/day, AUC0-24) was 11000 ng·h/mL and the Cmax ([5]; male, Sprague Dawley, rat, in vivo, 100 mg/kg/day, Cmax) was 1010 ng/mL. It also gave a half-life [5, 10] of 3.27 h, an AUC0-24 [5, 11] of 9750 ng·h/mL and an AUC(0-t) ([5]; male, Sprague Dawley, rat, in vivo, 300 mg/kg/day, AUC0-24) of 10700 ng·h/mL. The Tmax [5, 11] was 0.5 h, the half-life [5, 11] was 5.54 h and the AUC0-24 [5, 12] was 8130 ng·h/mL. The AUC(0-t) ([5]; male, Sprague Dawley, rat, in vivo, 1000 mg/kg/day, AUC0-24) was 11300 ng·h/mL, the AUC(0-t) ([5]; male, Sprague Dawley, rat, in vivo, 1000 mg/kg/day, plasma AUC0-24) was 8130 ng·h/mL and the Cmax ([5]; male, Sprague Dawley, rat, in vivo, 1000 mg/kg/day, plasma Cmax) was 647 ng/mL. For the same compound, the half-life [5, 12] was 9.35 h, the “accumulation after 28 days of once-daily dosing” value ([5]; rat, in vivo) was “no accumulation” and the IC50 [6] was 3.81 µM. The “Maximum Percent inhibition” value ([6]; OATP1B1, HEK293 cells) was 93%.
